The term pKi denotes the negative decadic logarithm of the Ki, by convention in mol/L.

Here are results for seven molecules from patent US7812037B2, “Dual antiplatelet/anticoagulant pyridoxine analogs” (Medicure International, Inc., priority 2004, dated 2010).

Test [1] has as its target T1, Human FXa (Homo sapiens, UniProt P00742).
T1 construct: Determination of Anti-Factor Xa (Fxa) Activity; purchased Calbiochem
As to the kind of experiment: Determination of Anti-Factor Xa (Fxa) Activity. Format: biochemical. The following applies: competitive inhibition; substrate Pefachrome Xa; pH 7.5. How it is done:
The test compounds (40 μL) adjusted to various concentrations (0.25 to 100 μM) were incubated with 5 nM Human FXa (Calbiochem, San Diego, Calif.) enzyme in 125 mM Tris [Tris(hydroxymethyl)aminomethane] buffer (pH 7.5) containing 375 mM sodium chloride and 0.25% polyethylene glycol (MW 8000) (80 μL) at room temperature for about 30 minutes. 80 μL of synthetic substrate Pefachrome® Xa (Pentapharm, Basel, Switzerland), adjusted to various concentrations from 125 μM to 1.25 mM, was added. The activity was measured at 37° C. by monitoring absorbance at 405 nm for 15 minutes using a FLUOstar OPTIMA™ (BMG Labtech GmbH, Offenburg, Germany) microplate reader. Control sample was the solvent alone. Each test compound was analyzed twice using 4 concentrations of compound plus control (in duplicate) with 5 concentrations of substrate (50, 100, 200, 300 and 500 μM). The specific activity (ΔA405/min/nM enzyme) was determined for each data point. The Ki for competitive inhibition was then determined for each test compound using the Enzyme Kinetics module of Sigmaplot 8.0 (SPSS Inc., Chicago, Ill.).

In test [2] the test system is platelets (platelet rich plasma). As to the kind of experiment: Inhibition of platelet aggregation, ADP as agonist. Format: cell-based. The following applies: ADP 4 μM, human PRP, read-out: % Reduction in Aggregation ADP (4 μM); for inhibition at 30 µM: compound 30 μM. How it is done: (§1) Platelet rich plasma (PRP) was obtained by drawing whole blood from normal human donors (not on any medication) into sodium citrate tubes (3.2%), and centrifuging at 160×g for about 10 minutes. Platelet poor plasma (PPP) was obtained by centrifuging the remainder of the sample after the platelets were removed at 800×g for about 10 minutes. The PRP was adjusted to a count of 280×10^9/L using a mixture of PRP and PPP. The platelets (200 μL) were incubated with the test compounds (25 μL) adjusted to various concentrations (5, 10, 20, 30, 50, and 100 μM) for about 30 minutes at room temperature (approximate final platelet count in the incubation mixture of 250×10^9/L). The samples were incubated for about 3 minutes at about 37° C., and then transferred to the mixing wells of a Chrono-log 4 channel aggregometer (Chrono-log Corp., Havertown, Pa.). After baselines were established, agonist (25 μL of 40 μM ADP (Sigma, St. Louis, Mo.) or 25 μL of 50 μg/mL and 10 μg/mL collagen (Helena Laboratories, Beaumont, Tex.) or 25 μL of 120 μM thrombin receptor activating peptide (TRAP) (Sigma)) was then added. Aggregation was monitored for 5 minutes at 37° C. with stirring (1000 rpm). The amplitude and slope of each tracing were calculated to determine the amount of aggregation. Control samples were performed using only solvent. The % reduction in aggregation was calculated for each sample compared to the proper solvent control.

Test [3] concerns the target T2, Human Thrombin (Homo sapiens, UniProt P00734).
T2 construct: Determination of Anti-Thrombin (Factor IIa) Activity; purchased Calbiochem
The test is described as follows: Determination of Anti-Thrombin (Factor IIa) Activity. The format is biochemical. The conditions noted are these: competitive inhibition; substrate Pefachrome Thr; pH 8.3. How it is done: The test compounds (40 μL) adjusted to various concentrations (0.25 to 100 μM) were incubated with Human Thrombin (Calbiochem) enzyme (5 nM) in 31 mM Tris buffer (pH 8.3) containing 81 mM sodium chloride and 0.63% bovine serum albumin (fraction V)(80 μL) at room temperature for about 30 minutes. 80 μL of Pefachrome® Thr (Pentapharm) was adjusted to various concentrations, from 62.5 μM to 1.25 mM. The activity was measured at about 37° C. by monitoring absorbance at 405 nm for about 15 minutes using a FLUOstar OPTIMA™. Control sample was the solvent alone. Each test compound was analyzed twice using 4 concentrations of compound plus control (in duplicate) with 5 concentrations of substrate (50, 100, 200, 300 and 500 μM). The specific activity (ΔA405/min/nM enzyme) was determined for each data point. The Ki for competitive inhibition was then determined for each test compound using the Enzyme Kinetics module of Sigmaplot 8.0 (SPSS).

Test [4] relates to platelets (platelet rich plasma). As to the kind of experiment: Inhibition of platelet aggregation, collagen as agonist. Format: cell-based. The following applies: human PRP; for inhibition at 30 µM: compound 30 μM; for inhibition at 5 µM: compound 5 μM. How it is done: as §1
For test [5] the test system is unchanged. The test is described as follows: Inhibition of platelet aggregation, thrombin receptor activating peptide (TRAP) as agonist. The format is cell-based. The conditions noted are these: TRAP 12 μM, human PRP, read-out: % Reduction in Aggregation TRAP (12 μM); for inhibition at 30 µM: compound 30 μM. How it is done:
as §1

The mark [6] stands for this setting: collagen 1 μg/mL, read-out: % Reduction in Aggregation Collagen (1 μg/mL).
Where [7] appears, read: collagen 5 μg/mL, read-out: % Reduction in Aggregation Collagen (5 μg/mL).

pKi: −log10 of the molar value.

T1 sequence (P00742 235-488 limits assumed): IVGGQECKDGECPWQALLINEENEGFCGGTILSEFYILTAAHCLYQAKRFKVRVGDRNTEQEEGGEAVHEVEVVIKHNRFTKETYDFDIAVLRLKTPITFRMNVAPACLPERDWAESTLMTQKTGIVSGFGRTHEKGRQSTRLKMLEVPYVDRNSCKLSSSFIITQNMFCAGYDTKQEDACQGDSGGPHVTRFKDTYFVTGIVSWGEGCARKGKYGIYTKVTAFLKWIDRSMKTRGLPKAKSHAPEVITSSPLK
T1 sequence (P00742 41-179 partner limits assumed): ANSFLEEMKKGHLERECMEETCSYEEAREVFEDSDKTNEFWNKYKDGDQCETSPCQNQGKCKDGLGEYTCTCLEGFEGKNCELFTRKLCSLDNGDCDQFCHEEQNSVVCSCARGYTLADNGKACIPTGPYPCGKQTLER

Turning to `Cc1ncc(CNc2ccc(-c3ccc(C(=N)N)cc3)cc2)c(CO)c1OCc1ccc(C(=N)N)cc1` [Compound 6, 4′-{[5-(4-Carbamimidoyl-benzyloxy)-4-hydroxymethyl-6-methyl-pyridin-3-ylmethyl]-amino}-biphenyl-4-carboxamidine], the pKi in test [1] is 5.64; in test [3], 4.99. For the same molecule, the inhibition at 30 µM came to 89% in test [2], 100% in test [4] (setting [6]), 44% in test [4] (setting [7]) and 86% in test [5].
As for `Cc1ncc(CNc2ccc(-c3ccc(C(=N)N)cc3)cc2)c(C)c1OCc1cccc(C(=N)N)c1` [Compound 29, 4′-{[5-(3-Carbamimidoyl-benzyloxy)-4,6-dimethyl-pyridin-3-ylmethyl]-amino}-biphenyl-4-carboxamidine], the negative-log Ki (pKi) in test [1] was 6.85; in test [3], 5.34. For the same molecule, the inhibition at 30 µM in test [2] worked out at 52%; in test [4] (setting [6]) it was 32%; in test [4] (setting [7]), 15%; in test [5], 32%.
In the case of `Cc1ncc(CNc2ccc(-c3ccc(C(=N)N)cc3)cc2)c(CNCCCCCC(=O)O)c1OCc1ccc(C(=N)N)cc1` [Compound 56, 6-({3-(4-Carbamimidoyl-benzyloxy)-5-[(4′-carbamimidoyl-biphenyl-4-ylamino)-methyl]-2-methyl-pyridin-4-ylmethyl}-amino) hexanoic acid], the values for the negative logarithm of the Ki (pKi) in test [1] and in test [3] were 5.21 and 6.07, respectively. The inhibition at 5 µM in test [2] (compound 5 μM) was found to be 96%; in test [4] (setting [6]), 91%; in test [4] (setting [7]) it was 63%; in test [5] (compound 5 μM), 90%.
Consider `Cc1ncc(CNc2ccc(-c3ccc(C(=N)N)cc3)cc2)c(C)c1OCc1ccc(C(=N)N)cc1` [Compound 25, 4′-{[5-(4-Carbamimidoyl-benzyloxy)-4,6-dimethyl-pyridin-3-ylmethyl]-amino}-biphenyl-4-carboxamidine], for which the pKi is 6.49 in test [1] and 5.42 in test [3]. Also, the inhibition at 30 µM is 93% in test [2], 96% in test [4] (setting [6]), 52% in test [4] (setting [7]) and 95% in test [5].
Turning to `Cc1ncc(CNc2ccc(-c3ccc(C(=N)N)cc3)cn2)c(CO)c1OCc1ccc(C(=N)N)cc1` [Compound 60], the pKi in test [1] is 4.60; in test [3], 4.96. The inhibition at 30 µM came to 87% in test [2], 47% in test [4] (setting [6]), 26% in test [4] (setting [7]) and 89% in test [5].
Regarding `Cc1ncc(CNc2ccc(C(=N)N)cc2)c(C)c1OCc1ccc(C(=N)N)cc1` [Compound 31, 4-{[5-(4-Carbamimidoyl-benzyloxy)-4,6-dimethyl-pyridin-3-ylmethyl]-amino}-benzamidine], the pKi is 5.87 in test [1] and 7.21 in test [3]. Also, the inhibition at 10 µM amounted to 80% in test [2] (compound 10 μM); 83% in test [4] (compound 10 μM, collagen 1 μg/mL, read-out: % Reduction in Aggregation Collagen (1 μg/mL)); 84% in test [5] (compound 10 μM).
On to `Cc1ncc(CNc2ccc(C(=N)N)cc2)c(C)c1OCc1cccc(C(=N)N)c1` [Compound 33, 4-{[5-(3-Carbamimidoyl-benzyloxy)-4,6-dimethyl-pyridin-3-ylmethyl]-amino}-benzamidine], for which the pKi is 6.55 in test [1] and 7.51 in test [3]. Moreover, the inhibition at 50 µM in test [2] (compound 50 μM) was found to be 84%; in test [4] (compound 50 μM, collagen 1 μg/mL, read-out: % Reduction in Aggregation Collagen (1 μg/mL)) it was 81%; in test [5] (compound 50 μM), 79%.
